# Values joined by “and” are separate entries in the source; they are usually repeats but may differ in a detail not shown here. Equal values may be shown once. Read-outs that look alike come from different tables or passages of the source.
# Experiments:
# HIV-1 RT [1] = test: Amp-RT assay, AZT-TP and other NRTI-TPs, reference viruses; type: biochemical
# HIV-1 RT [2] = target: HIV-1 RT (Human immunodeficiency virus type 1 group M subtype B, UniProt P04585, M628L/L661V/V693A/T802Y); settings: 50 μM; HIV-1RTMDR1/MT-2 (74V/41L/106A/215Y)
# Protocol: (§1) For culture supernatant, 10 μl were used directly in the Amp-RT assay. For plasma testing, a volume of 100 μl was clarified by centrifugation at 10,000 g for five minutes and then ultracentrifuged at a fixed angle at 99,000 g for 1 hour at 4° C. The viral pellet was resuspended in 100 μl of RT buffer (50 mM Tris-HCl, 50 mM KCl, 10 mM MgCl2). Ten microliter aliquots of virus pellets were applied to an RT buffer containing 10 ng of EMCV RNA template, 10 units of RNasin, 0.6% NP-40, 100 ng of the 5′-biotin-labeled EMCR2 antisense primer, 1 nM EGTA, 2 mM dithiothreitol, 50 mM Tris-HCl, 50 mM KCl, 10 mM MgCl2, and 400 uM of each dNTP. Reactions were incubated at 37° C. for 2 hours and then heated at 95° C. for five minutes to destroy RT activity. […] The conditions for PCR were 35 cycles at 95° C. for one minute, 55° C. for one minute, and 72° C. for one minute.
# (§2) For quantitation of RT levels, a standard curve was generated by using known RT units from a reference HIV-1 stock (Virology Quality Assurance Laboratory, Rush-Presbyterian-St. Luke's Medical Center, Chicago, Ill.). […] All samples were tested within the linear range of the Amp-RT assay (from 10^−6 to 10^−10 units of RT activity). Samples which had levels of RT activity above the linear range of the assay, were further diluted in RT buffer and retested again. The minimum detectable level of HIV-1 RT activity by the Amp-RT in plasma is 10^−10 units, the equivalent of 1 HIV-1 particle of the reference virus used for quantitation. The results of Amp-RT signals were expressed as units of RT activity per milliliter of plasma and reflect the average of duplicate results.
# HIV-1 RT [3] = system: HIV-1 RT
# Protocol: as §1, §2
# plasma HIV-1 RT = plasma HIV-1 RT (Human immunodeficiency virus type 1, UniProt P04585); settings: 50 μM nevirapine
# Protocol: as §1, §2
# HIV-1 isolates = settings: read-out: IC50 Culture, cited from earlier work
# [4] = MNR HIV-1SUM12 (F77L, F116Y, Q151M)
# [5] = MNR HIV-1SUM13 (A62V, V75I, F77L, F116Y, Q151M)
compound,measurement,setting,value
"Nc1ccn([C@H]2CC[C@@H](COP(=O)(O)OP(=O)(O)OP(=O)(O)O)O2)c(=O)n1 [ddC-TP, ddC-triphosphate]",IC50,HIV-1 RT [1]; MNR HIV-1SUM8 (Q151M),1.8 µM
same,fold resistance (IC50) as compared to the mean IC values of WT HIV-1,HIV-1 RT [1]; MNR HIV-1SUM8 (Q151M),(3.6) fold
same,IC50,HIV-1 RT [1]; [4],6 µM
same,fold resistance (IC50) as compared to the mean IC values of WT HIV-1,HIV-1 RT [1]; [4],(12) fold
same,IC50,HIV-1 RT [1]; [5],7.5 µM
same,fold resistance (IC50) as compared to the mean IC values of WT HIV-1,HIV-1 RT [1]; [5],(15) fold
same,IC50,HIV-1 RT [1]; WT HIV-1LAI,0.5 µM
same,IC50,HIV-1 RT [1]; WT HIV-1SUM9,0.5 µM
Nc1ncnc2c1ncn2[C@H]1CC[C@@H](COP(=O)(O)OP(=O)(O)OP(=O)(O)O)O1 [ddA-TP],IC50,HIV-1 RT [1]; MNR HIV-1SUM8 (Q151M),1.2 µM
same,fold resistance (IC50) as compared to the mean IC values of WT HIV-1,HIV-1 RT [1]; MNR HIV-1SUM8 (Q151M),(6.5) fold
same,IC50,HIV-1 RT [1]; [4],1.1 µM
same,fold resistance (IC50) as compared to the mean IC values of WT HIV-1,HIV-1 RT [1]; [4],(5.9) fold
same,IC50,HIV-1 RT [1]; [5],6 µM
same,fold resistance (IC50) as compared to the mean IC values of WT HIV-1,HIV-1 RT [1]; [5],(32.4) fold
same,IC50,HIV-1 RT [1]; WT HIV-1SUM9,0.27 µM
same,IC50,HIV-1 RT [1]; WT HIV-1xxBRUpitt,0.1 µM
Cc1ccnc2c1NC(=O)c1cccnc1N2C1CC1 [nevirapine],Inhibition of RT by Nevirapine,HIV-1 RT [2],partially inhibited
same,inhibition of RT,"HIV-1 RT [3]; 50 μM nevirapine, isolate W786-6, 8.3×10^−9 units of RT activity",no significant inhibition
same,Inhibition of RT. (%),"HIV-1 RT [3]; 50 μM nevirapine, isolate W786-6, input 5.6 × 10^−8 units",0%
same,Inhibition of RT. (%),"HIV-1 RT [3]; 50 μM nevirapine, isolate X267-1, input 6.9 × 10^−9 units",complete inhibition and 100%
same,Inhibition of RT. (%),"HIV-1 RT [3]; 50 μM nevirapine, isolate X267-1, input 7.1 × 10^−7 units",98.6%
same,Inhibition of RT. (%),"HIV-1 RT [3]; 50 μM nevirapine, isolate X267-1, input 7.1 × 10^−7 units, listed as Nevirapine",98.7%
same,Inhibition of RT. (%),"HIV-1 RT [3]; 50 μM nevirapine, isolate X267-1, input 7.2 × 10^−8 units",complete inhibition and 100%
same,Inhibition of RT. (%),"HIV-1 RT [3]; 50 μM nevirapine, isolate X403-4, input 4.4 × 10^−7 units",16%
same,inhibition of RT,"HIV-1 RT [3]; 50 μM nevirapine, isolates X403-4 and W786-6, high or low input of RT",no significant inhibition
same,Inhibition of RT. (%),"HIV-1 RT [3]; 50 μM nevirapine, line under isolate X403-4, input 4.1 × 10^−7 units",0%
same,Inhibition of RT. (%),"HIV-1 RT [3]; 50 μM nevirapine, line under isolate X403-4, input 8.2 × 10^−9 units",0%
same,RT inhibition,"HIV-1 RT [3]; 50 μM nevirapine, mixture 10% resistant (W786-6) and 90% sensitive (X267-1) viruses",94%
same,RT inhibition,"HIV-1 RT [3]; 50 μM nevirapine, mixture containing 25% resistant viruses",80%
same,RT inhibition,"HIV-1 RT [3]; 50 μM nevirapine, mixture containing 75% resistant viruses",29%
same,inhibition of RT activity,"HIV-1 RT [3]; 50 μM nevirapine, resistant isolates",little or no inhibition
same,RT inhibition,"HIV-1 RT [3]; 50 μM nevirapine, sensitive isolate X267-1 alone",> 99%
same,Inhibition of RT by Nevirapine,"HIV-1 RT [3]; 50 μM, HIV-1RTMC/MT-2 (67N/70R/215F/219Q), AZT-resistant",91.8%
same,Inhibition of RT by Nevirapine,"HIV-1 RT [3]; 50 μM, HIV-1RTMDR1/MT-2 (74V/41L/106A/215Y)",43%
same,Inhibition of RT by Nevirapine,"HIV-1 RT [3]; 50 μM, L6KL5 (103N/75I/77L/116Y/151M)",7%
same,Inhibition of RT by Nevirapine,"HIV-1 RT [3]; 50 μM, L6KL5 (103N/75I/77L/116Y/151M), listed as Nevirapine",0%
same,Inhibition of RT by Nevirapine,"HIV-1 RT [3]; 50 μM, M184V/Y181CEU (184V/181C)",0%
same,Inhibition of RT by Nevirapine,"HIV-1 RT [3]; 50 μM, M184Vpitt (184V), 3TC-resistant",98.8%
same,Inhibition of RT by Nevirapine,"HIV-1 RT [3]; 50 μM, N119 (181C)",0%
same,Inhibition of RT by Nevirapine,"HIV-1 RT [3]; 50 μM, N119 (181C), listed as Nevirapine",7%
same,susceptibility to nevirapine,"HIV-1 RT [3]; 50 μM, viruses containing mutations associated with AZT or 3TC resistance",susceptible
same,Units of RT activity With 50 μM Nevirapine,"HIV-1 RT [3]; isolate W786-6, 5.6 × 10^−8 without nevirapine",7.7 × 10^−8 Units of RT activity
same,Units of RT activity With 50 μM Nevirapine,"HIV-1 RT [3]; isolate X267-1, 7.1 × 10^−7 without nevirapine",9.1 × 10^−9 Units of RT activity
same,Units of RT activity With 50 μM Nevirapine,"HIV-1 RT [3]; isolate X403-4, 4.4 × 10^−7 without nevirapine",3.7 × 10^−7 Units of RT activity
same,Units of RT activity With 50 μM Nevirapine,"HIV-1 RT [3]; line under isolate X403-4, 4.1 × 10^−7 without nevirapine",5.0 × 10^−7 Units of RT activity
same,Units of RT activity With 50 μM Nevirapine,"HIV-1 RT [3]; line under isolate X403-4, 8.2 × 10^−9 without nevirapine",8.4 × 10^−9 Units of RT activity
same,RT inhibition,"plasma HIV-1 RT; patient N06, after 7 days of treatment",100%
same,RT inhibition,"plasma HIV-1 RT; patient N07, day 7 of treatment",24%
same,RT inhibition,"plasma HIV-1 RT; patient N12, after 7 days of treatment",94%
same,RT inhibition,"plasma HIV-1 RT; patient N12, day 14 of treatment",32%
same,mean RT inhibition,plasma HIV-1 RT; samples after more than two weeks of treatment,13.82%
same,mean RT inhibition,plasma HIV-1 RT; samples collected before therapy (n=7),99.3%
same,mean RT inhibition,plasma HIV-1 RT; samples of the first six days of treatment (n=14),98.2%
same,IC50,HIV-1 isolates; isolate S469-2/M3 (Y188L),100 µM
same,IC50,HIV-1 isolates; isolate X165-6 (no mutations),0.07 µM
same,IC50,HIV-1 isolates; isolate X267-1 (no mutations),0.04 µM
Cc1cn([C@H]2C=C[C@@H](COP(=O)(O)OP(=O)(O)OP(=O)(O)O)O2)c(=O)[nH]c1=O [d4T-TP],IC50,HIV-1 RT [1]; MNR HIV-1SUM8 (Q151M),0.32 µM
same,fold resistance (IC50) as compared to the mean IC values of WT HIV-1,HIV-1 RT [1]; MNR HIV-1SUM8 (Q151M),(9.1) fold
same,IC50,HIV-1 RT [1]; [4],0.37 µM
same,fold resistance (IC50) as compared to the mean IC values of WT HIV-1,HIV-1 RT [1]; [4],(10.6) fold
same,IC50,HIV-1 RT [1]; [5],0.37 µM
same,fold resistance (IC50) as compared to the mean IC values of WT HIV-1,HIV-1 RT [1]; [5],(10.6) fold
same,IC50,HIV-1 RT [1]; WT HIV-1LAI,0.015 µM
same,IC50,HIV-1 RT [1]; WT HIV-1SUM9,0.055 µM

# From patent US7691572B2, “Method and kit for detecting resistance to antiviral drugs” (priority 1998, dated 2010)
